Tested on: 922993-354-T-J3-PDC complex spheroid viability
Test: Anticancer human tumor 922993-354-T-J3-PDC patient-derived endometrial carcinoma cell line growth inhibition [POLQ]
Details: for IC50: curve of first compound; for viability, T/C: stronger effect = lower value; active = viability on the fitted dose curve at most 10% of control; inactive = the rest
Outline: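 Complex spheroid viability model combining PDC tumour cells with endothelial (HUVEC) and MSC stromal cells. Novobiocin, ART-558 or RP6685 were tested singly and in combination with standard and investigational anticancer drugs. Each was titrated in half-log steps from near clinical Cmax, or from 10 microM where Cmax was unknown.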
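Also: spheroids exposed to the agents for one week.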
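For viability, T/C in this document: 100% = DMSO vehicle control wells.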

C#Cc1c(F)ccc2cc(O)cc(-c3ncc4c(N5CC6CCC(C5)N6)nc(OCC56CCCN5CC(F)C6)nc4c3F)c12 (configuration not stated) + Cc1cccc(N(C)C(=O)C2C(O)CCN2c2nc(C)cc(C(F)(F)F)c2C#N)c1
inactive: viability, T/C (second compound 0.0316 µM, first compound 0.0316 µM) 107% | viability, T/C (second compound 0.0316 µM, first compound 0.1 µM) 102% | viability, T/C (second compound 0.0316 µM, first compound 0.316 µM) 104% | viability, T/C (second compound 0.0316 µM, first compound 1 µM) 106% | viability, T/C (second compound 0.0316 µM, first compound 3.16 µM) 95.8% | viability, T/C (second compound 0.0316 µM, first compound 10 µM) 91.3% | viability, T/C (second compound 0.1 µM, first compound 0.0316 µM) 107% | viability, T/C (second compound 0.1 µM, first compound 0.1 µM) 95% | viability, T/C (second compound 0.1 µM, first compound 0.316 µM) 94% | viability, T/C (second compound 0.1 µM, first compound 1 µM) 93.7% | viability, T/C (second compound 0.1 µM, first compound 3.16 µM) 87.9% | viability, T/C (second compound 0.1 µM, first compound 10 µM) 98.7% | viability, T/C (second compound 0.316 µM, first compound 0.0316 µM) 109% | viability, T/C (second compound 0.316 µM, first compound 0.1 µM) 108% | viability, T/C (second compound 0.316 µM, first compound 0.316 µM) 98.5% | viability, T/C (second compound 0.316 µM, first compound 1 µM) 101% | viability, T/C (second compound 0.316 µM, first compound 3.16 µM) 95% | viability, T/C (second compound 0.316 µM, first compound 10 µM) 91.7% | viability, T/C (second compound 1 µM, first compound 0.0316 µM) 102% | viability, T/C (second compound 1 µM, first compound 0.1 µM) 107% | viability, T/C (second compound 1 µM, first compound 0.316 µM) 98.7% | viability, T/C (second compound 1 µM, first compound 1 µM) 94.5% | viability, T/C (second compound 1 µM, first compound 3.16 µM) 97.8% | viability, T/C (second compound 1 µM, first compound 10 µM) 89.2% | viability, T/C (second compound 3.16 µM, first compound 0.0316 µM) 106% | viability, T/C (second compound 3.16 µM, first compound 0.1 µM) 101% | viability, T/C (second compound 3.16 µM, first compound 0.316 µM) 104% | viability, T/C (second compound 3.16 µM, first compound 1 µM) 104% | viability, T/C (second compound 3.16 µM, first compound 3.16 µM) 99.5% | viability, T/C (second compound 3.16 µM, first compound 10 µM) 86.2% | viability, T/C (second compound 10 µM, first compound 0.0316 µM) 103% | viability, T/C (second compound 10 µM, first compound 0.1 µM) 97.2% | viability, T/C (second compound 10 µM, first compound 0.316 µM) 98.1% | viability, T/C (second compound 10 µM, first compound 1 µM) 94.8% | viability, T/C (second compound 10 µM, first compound 3.16 µM) 100% | viability, T/C (second compound 10 µM, first compound 10 µM) 78.4%
> 10 µM: IC50 (second compound 0.0316 µM) | IC50 (second compound 0.1 µM) | IC50 (second compound 0.316 µM) | IC50 (second compound 1 µM) | IC50 (second compound 3.16 µM) | IC50 (second compound 10 µM)
